Legend:
[1] = target: T1, IAPP (Homo sapiens, UniProt P10997); experiment: MS (electrospray mass spectrometry) binding assay for IAPP
T1 construct: which is a 37 amino acid peptide, derived from a larger precursor peptide, called pro-IAPP
T1 sequence (P10997 34-70 limits assumed): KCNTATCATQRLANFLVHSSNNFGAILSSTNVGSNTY

[2] = target: T2, Aβ40 and Aβ42 peptides in plasma and brain of TgCRND8 mice (Homo sapiens, UniProt P05067); experiment: Short term treatment in adult transgenic CRND8 mice overexpressing βAPP: Aβ levels in plasma and brain by ELISA; type: in vivo, Mouse; details: for Brain homogenate Aβ40 Change Insoluble / Brain homogenate Aβ40 Change Soluble / Brain homogenate Aβ42 Change Soluble / Brain homogenate Aβ42 Change Insoluble / Plasma Aβ40 Change / Plasma Aβ42 Change: TgCRND8 mice
T2 construct: ELISA using Human Aβ40 and Aβ42 Fluorometric ELISA kits from Biosource; from tissue; host or cells: plasma and brain homogenate of TgCRND8 transgenic mice (hAPP transgene)
Excerpt: Transgenic mice, […]8, expressing the human amyloid precursor protein (hAPP) develop a pathology resembling Alzheimer's disease. In particular, high levels of Aβ40 and Aβ 42 have been documented in the plasma and the brain of these animals at 8-9 weeks of age, followed by early accumulation of amyloid plaques similar to the senile plaques observed in AD patients. These animals also display progressive cognitive deficits that parallel the appearance of degenerative changes. See, […], et al., J. Biol. Chem. 276, 21562-70 (2001). The short term therapeutic effect of 19 compounds of the invention was studied. […] The following abbreviations are used to designate these animals from the 3rd and 4th generation backcross in the present protocol: TgCRND8-2.B6C3F1(N3); TgCRND8-2.B6C3F1(N4). Baseline animals (Group 1) consisted of naive TgCRND8-2. B6C3F1(N3) at 11±1 weeks of age. These mice were used to determine the Aβ levels in the plasma and brain of naive transgenic animals at the initiation of treatment. […] At the end of the treatment periods, plasma and perfused brains were collected for quantification of Aβ levels. […] Plasma samples were immediately frozen and stored at -80° C. pending analysis. The brains were removed, frozen, and stored at -80° C. awaiting analysis. […] Samples were spun at 15000 g for 20 minutes and the supernatants were transferred to fresh tubes. […] The tubes were vortexed for 30 seconds and frozen at -80° C. […] Samples were thawed at room temperature, sonicated at 80° C. for 15 minutes and frozen again. This cycle was repeated 3 times to ensure homogeneity and samples were returned to -80° C. pending analysis. Aβ levels were evaluated in plasma and brain samples by ELISA using Human Aβ40 and Aβ42 Fluorometric ELISA kits from Biosource (Cat. […] In short, samples were thawed at room temperature, sonicated for 5 minutes at 80° C. (sonication for brain homogenates; no sonication for plasma samples) and kept on ice. Aβ peptides were captured using 100 μl of the diluted samples to the plate and incubated without shaking at 4° C. overnight. The samples were aspirated and the wells were rinsed 4 times with wash buffer obtained from the Biosource ELISA kit. The anti-Aβ40 or anti-Aβ42 rabbit polyclonal antiserum (specific for the Aβ40 or Aβ42 peptide) was added (100 μl) and the plate was incubated at room temperature for 2 hours with shaking. The wells were aspirated and washed 4 times before adding 100 μl of the alkaline phosphatase labeled anti-rabbit antibody and incubating at room temperature for 2 hours with shaking. The plates were then rinsed 5 times and the fluorescent substrate (100 μl) was added to the plate. The plate was incubated for 35 minutes at room temperature and the plate was read using a titer plate reader at an excitation wavelength of 460 nm and emission at 560 nm Compounds were scored based on their ability to modulate levels of Aβ peptides in the plasma and the cerebral soluble/insoluble levels in the brain. Levels of Aβ observed in the plasma and brain of treated animals were normalized using values from vehicle-treated (water) or methylcellulose-treated control groups and ranked according to the strength of the pharmacological effect. Increases in the levels of Aβ peptides are indicated using “+” symbols, while decreases in the levels of Aβ peptides are indicated using “-” symbols. The strongest effects are recorded as “+++” or “- - -” while the weakest are shown as “+” or “-”.

[3] = Table 3D, 40 μM Aβ peptide, 400 μM compound (so in the source)
[4] = Table 3B, 30 μM Aβ peptide, 150 μM compound (so in the source)
[5] = Brain Homogenate Vehicle Group, Day 14, 250 mg/kg daily
[6] = Brain Homogenate Vehicle Group, Day 28, 250 mg/kg daily
[7] = Plasma Vehicle Group, Day 14, 250 mg/kg daily subcutaneous, normalized to water vehicle control
[8] = Brain Homogenate Vehicle Group, Day 28, total levels, soluble and insoluble not measured independently, 250 mg/kg daily
[9] = Plasma Vehicle Group, Day 28, 250 mg/kg daily subcutaneous, normalized to water vehicle control
[10] = Brain Homogenate Methylcellulose Group, Day 14, 250 mg/kg daily oral
[11] = Brain Homogenate Methylcellulose Group, Day 28, 250 mg/kg daily oral

O=C(O)CNCCCS(=O)(=O)O [HZ]
MS binding IAPP [1, 3]: − (<20%=(−))

CC(CCNC1CCCCC1)S(=O)(=O)O (stereo not drawn) [KM, 4-(cyclohexylamino)-2-butanesulfonic acid]
MS binding IAPP [1, 4]: +++ (60-100% binding=(+++))

O=S(=O)(O)CCCN1CCc2c(Br)cccc2C1 [IK]
MS binding IAPP [1, 3]: + (20-39% binding=(+))

O=S(=O)(O)CCCN1CCc2c([nH]c3ccc(Br)cc23)C1 [IR]
MS binding IAPP [1, 3]: + (20-39% binding=(+))

O=S(=O)(O)CC(O)CNC1C2CC3CC(C2)CC1C3 (stereo not drawn) [KJ, 3-(2-adamantylamino)-2-hydroxy-1-propanesulfonic acid]
MS binding IAPP [1, 4]: +++ (60-100% binding=(+++))

O=S(=O)(O)CCCn1cc[n+](CCCn2ccnc2)c1 [HW]
MS binding IAPP [1, 3]: − (<20%=(−))

O=C(O)c1ccc2[nH]c3c(c2c1)CCN(CCCCS(=O)(=O)O)C3 [LA]
MS binding IAPP [1, 3]: − (<20%=(−))

CC(C)(C)NCC(O)CS(=O)(=O)O (stereo not drawn) [JV, 3-(tert-butylamino)-2-hydroxy-1-propanesulfonic acid]
MS binding IAPP [1, 4]: ++ (40-59% binding=(++))

O=S(=O)(O)CCCCNC1C2CC3CC(C2)CC1C3 (stereo not drawn) [LN, 4-(2-adamantyl)amino-1-butanesulfonic acid]
MS binding IAPP [1, 4]: +++ (60-100% binding=(+++))

O=S(=O)(O)CCCN/C=C\NCCCS(=O)(=O)O [HX]
MS binding IAPP [1, 3]: − (<20%=(−))

N[C@@H](Cc1ccccc1)C(=O)NCCS(=O)(=O)O [KT]
MS binding IAPP [1, 4]: ++ (40-59% binding=(++))

O=S(=O)(O)CCCNC1CC2CCC1C2 (stereo not drawn) [BY, 3-(2-norbornyl)amino-1-propanesulfonic acid]
Brain homogenate Aβ40 Change Insoluble [2, 5]: +++ (increases of 70% or higher are scored as “+ + +”)
Brain homogenate Aβ40 Change Soluble [2, 5]: +++ (increases of 70% or higher are scored as “+ + +”)
Brain homogenate Aβ42 Change Soluble [2, 5]: +++ (increases of 70% or higher are scored as “+ + +”)
Brain homogenate Aβ40 Change Insoluble [2, 6]: +++ (increases of 70% or higher are scored as “+ + +”)
Brain homogenate Aβ40 Change Soluble [2, 6]: + (increases in the levels of Aβ (relative to untreated control) of 20 to 39% are scored as “+”)
Brain homogenate Aβ42 Change Insoluble [2, 6]: +++ (increases of 70% or higher are scored as “+ + +”)
Plasma Aβ40 Change [2, 7]: + (increases in the levels of Aβ (relative to untreated control) of 20 to 39% are scored as “+”)
Plasma Aβ42 Change [2, 7]: + (increases in the levels of Aβ (relative to untreated control) of 20 to 39% are scored as “+”)

CC(C)(NCCCS(=O)(=O)O)c1ccccc1 [DM, 3-cumylamino-1-propanesulfonic acid]
Brain homogenate Aβ40 Change Insoluble [2, 5]: + (increases in the levels of Aβ (relative to untreated control) of 20 to 39% are scored as “+”)
Brain homogenate Aβ42 Change Insoluble [2, 5]: − (Decreases in the levels of Aβ of 5 to 19% are scored as “−”)
Brain homogenate Aβ42 Change Soluble [2, 5]: − (Decreases in the levels of Aβ of 5 to 19% are scored as “−”)
Brain homogenate Aβ40 Change Insoluble [2, 6]: −− (decreases of 20 to 38% are scored as “− −”)
Brain homogenate Aβ40 Change Soluble [2, 6]: − (Decreases in the levels of Aβ of 5 to 19% are scored as “−”)
Brain homogenate Aβ42 Change Insoluble [2, 6]: −− (decreases of 20 to 38% are scored as “− −”)
Brain homogenate Aβ42 Change Soluble [2, 6]: −− (decreases of 20 to 38% are scored as “− −”)

CCNCCCS(=O)(=O)O [CV, 3-ethylamino-1-propanesulfonic acid]
Brain homogenate Aβ40 Change, total level ([2]; Brain Homogenate Vehicle Group, Day 14, total levels, soluble and insoluble not measured independently, 250 mg/kg daily): − (Decreases in the levels of Aβ of 5 to 19% are scored as “−”)
Brain homogenate Aβ40 Change, total level [2, 8]: ++ (increases of 40 to 69% are scored as “++”)
Brain homogenate Aβ42 Change, total level [2, 8]: +++ (increases of 70% or higher are scored as “+ + +”)
Plasma Aβ40 Change [2, 7]: + (increases in the levels of Aβ (relative to untreated control) of 20 to 39% are scored as “+”)
Plasma Aβ42 Change [2, 7]: ++ (increases of 40 to 69% are scored as “++”)
Plasma Aβ40 Change [2, 9]: ++ (increases of 40 to 69% are scored as “++”)
Plasma Aβ42 Change [2, 9]: ++ (increases of 40 to 69% are scored as “++”)

CC12CC3CC(C)(C1)CC(NCCCS(=O)(=O)O)(C3)C2 [CY]
Brain homogenate Aβ40 Change Soluble [2, 10]: − (Decreases in the levels of Aβ of 5 to 19% are scored as “−”)
Brain homogenate Aβ42 Change Insoluble [2, 10]: ++ (increases of 40 to 69% are scored as “++”)
Brain homogenate Aβ42 Change Soluble [2, 10]: +++ (increases of 70% or higher are scored as “+ + +”)
Brain homogenate Aβ40 Change Insoluble [2, 11]: +++ (increases of 70% or higher are scored as “+ + +”)
Brain homogenate Aβ40 Change Soluble [2, 11]: ++ (increases of 40 to 69% are scored as “++”)
Brain homogenate Aβ42 Change Insoluble [2, 11]: + (increases in the levels of Aβ (relative to untreated control) of 20 to 39% are scored as “+”)
Brain homogenate Aβ42 Change Soluble [2, 11]: +++ (increases of 70% or higher are scored as “+ + +”)
Plasma Aβ42 Change ([2]; Plasma Methylcellulose Group, Day 28, 250 mg/kg daily oral in 1% methylcellulose, normalized to methylcellulose control): + (increases in the levels of Aβ (relative to untreated control) of 20 to 39% are scored as “+”)

CC(C)(CO)NCCCS(=O)(=O)O [DH, 3-(1,1-dimethyl-2-hydroxyethyl)amino-1-propanesulfonic acid]
Brain homogenate Aβ40 Change Insoluble [2, 5]: −− (decreases of 20 to 38% are scored as “− −”)
Brain homogenate Aβ42 Change Insoluble [2, 5]: −−− (decreases of 39% or more are scored as “− − −”)
Brain homogenate Aβ42 Change Soluble [2, 5]: −−− (decreases of 39% or more are scored as “− − −”)
Brain homogenate Aβ40 Change Insoluble [2, 6]: − (Decreases in the levels of Aβ of 5 to 19% are scored as “−”)
Brain homogenate Aβ42 Change Insoluble [2, 6]: − (Decreases in the levels of Aβ of 5 to 19% are scored as “−”)

CC1CC(NCCCS(=O)(=O)O)CC(C)(C)C1 (stereo not drawn) [ED, 3-(3,3,5-trimethylcyclohexyl)amino-1-1-propanesulfonic acid]
Brain homogenate Aβ40 Change Insoluble [2, 5]: + (increases in the levels of Aβ (relative to untreated control) of 20 to 39% are scored as “+”)
Brain homogenate Aβ40 Change Soluble [2, 5]: − (Decreases in the levels of Aβ of 5 to 19% are scored as “−”)
Brain homogenate Aβ40 Change Insoluble [2, 6]: −− (decreases of 20 to 38% are scored as “− −”)
Brain homogenate Aβ40 Change Soluble [2, 6]: − (Decreases in the levels of Aβ of 5 to 19% are scored as “−”)
Brain homogenate Aβ42 Change Insoluble [2, 6]: − (Decreases in the levels of Aβ of 5 to 19% are scored as “−”)
Brain homogenate Aβ42 Change Soluble [2, 6]: − (Decreases in the levels of Aβ of 5 to 19% are scored as “−”)

O=S(=O)(O)CCCNCC(O)c1ccccc1 (stereo not drawn) [DY]
Brain homogenate Aβ40 Change Insoluble [2, 5]: −− (decreases of 20 to 38% are scored as “− −”)
Brain homogenate Aβ42 Change Insoluble [2, 5]: −− (decreases of 20 to 38% are scored as “− −”)
Brain homogenate Aβ40 Change Insoluble [2, 6]: −−− (decreases of 39% or more are scored as “− − −”)
Brain homogenate Aβ42 Change Insoluble [2, 6]: −− (decreases of 20 to 38% are scored as “− −”)
Brain homogenate Aβ42 Change Soluble [2, 6]: − (Decreases in the levels of Aβ of 5 to 19% are scored as “−”)
